Measurements published in patent US9322066B2, “Predictors for cancer treatment” (priority 2011, dated 2016).

System: relapsed or refractory, rituximab-naive or -sensitive follicular B-cell NHL
Test: Progression-free survival (PFS), Vc-R vs rituximab study, by biomarker
Type: in vivo, human
Source text: Non-Hodgkin lymphoma (NHL) encompasses several unique malignant lymphoid disease entities that vary in clinical behavior, morphologic appearance, immunologic, and molecular phenotype. […] A randomized, open-label, active-controlled, multicenter, multinational, prospective study to compare the efficacy and safety of the combination of bortezomib and rituximab (Vc-R) to single-agent rituximab in subjects who have relapsed or refractory, rituximab-naive or -sensitive follicular B-cell NHL was performed.
Subjects were centrally randomized to Treatment Groups A (Vc-R) or B (rituximab) in a 1:1 ratio taking into account the following stratification factors: • Follicular Lymphoma International Prognostic Index (FLIPI) score (low [0 or 1 factor], intermediate [2 factors], high [≧3 factors]); • Prior rituximab therapy (yes, no); • Time since last dose of anti-lymphoma therapy (≦1 year, >1 year); • Region (United States/Canada, European Union, Rest of World).
The following clinical endpoints were included in the analysis within each treatment group and an overall comparison was made with the biomarker-related endpoints: Progression-free survival, defined as the interval between the date of randomization and the date of progressive disease (PD) or death, whichever is first reported in the ITT population; overall survival; overall response rate (complete response [CR]+CR unconfirmed [CRu]+partial response [PR]); overall CR rate (CR+CRu); duration of response; time to next anti-lymphoma therapy; and treatment free interval.
For single-marker association analyses and pair-wise comparisons, a log rank test and Cox proportional hazard model was utilized for assessments of PFS, TTP, and OS between the treatment groups. Kaplan-Meier curves were utilized to estimate the distribution differences between groups in the time-to-event analyses. Comparison of the response rates between the treatment groups was conducted using the Fishers exact test. Single-marker association analyses were stratified by the covariates.
For pair-wise comparison analysis, biomarker pairs were formed by combinations of two markers. A log rank test was utilized for assessments of PFS, TTP, and OS between the treatment groups in the subpopulation defined by biomarker pairs. Kaplan-Meier curves were utilized to estimate the distribution differences between groups in the time-to-event analyses. Comparison of the response rates between the treatment groups was conducted using the Fishers exact test. Methods of Analysis for the multiple biomarker comparison models can be found in section 4.6.
The stratified log rank test and Cox proportional hazard model was utilized for assessments of PFS between the treatment groups. The Kaplan-Meier method was to be used to estimate the distribution of overall PFS for each treatment group in the biomarker population, and overall; stratified by expression level, SNP, or mutation (or covariate groups as noted above). The hazard ratio and 95% confidence interval was based on a stratified Cox's proportion hazard model with treatment as the explanatory variable. Analyses were done for the population overall and by treatment group, and each of these analyses were also stratified by the following factors if sufficient sample size existed: […]

Substance: rituximab
- Median PFS (Vc-R vs R) (PSMB1/P11A C/G + P65 % POSITIVE CYTOPLASMIC SIGNAL >90%, Excluded): 348 days
- Median PFS (Vc-R vs R) (PSMB1/P11A C/G + P65 % POSITIVE CYTOPLASMIC SIGNAL >90%, Selected): 278 days
- Median PFS (Vc-R vs R) (PSMB1/P11A C/G + P65 % POSITIVE CYTOPLASMIC SIGNAL >90%, Total): 338 days
- Median PFS (Vc − R vs R) (PSMB1/P11A C/G + PSMB9/R60H G/G, Excluded): 346 days
- Median PFS (Vc − R vs R) (PSMB1/P11A C/G + PSMB9/R60H G/G, Selected): 288 days
- Median PFS (Vc − R vs R) (PSMB1/P11A C/G + PSMB9/R60H G/G, Total): 345 days
- Median PFS (Vc-R vs R) (PSMB1/P11A G/G + PSMB5/R24C C/T, Excluded): 345 days
- Median PFS (Vc-R vs R) (PSMB1/P11A G/G + PSMB5/R24C C/T, Selected): 237.5 days
- Median PFS (Vc-R vs R) (PSMB1/P11A G/G + PSMB5/R24C C/T, Total): 345 days
- Median PFS (Vc − R vs R) (PSMB5/R24AC C/C + 20S % NUCLEAR STAINING 30-90, Excluded): 346 days
- Median PFS (Vc − R vs R) (PSMB5/R24C C/C + 20S % NUCLEAR STAINING 30-90, Selected): 281 days
- Median PFS (Vc − R vs R) (PSMB5/R24C C/C + 20S % NUCLEAR STAINING 30-90, Total): 345 days
- PFS median (PSMB5/R24C C/T): 9.3 mo
- PFS median (PSMB5/R24C C/T & CD68 POSITIVE FOLLICULAR: 0-50): 7.2 mo
- PFS median (PSMB5/R24C C/T & P65 INTENSITY CYTOPLASMIC SIGNAL <=1+): 10.4 mo
- Median PFS (Vc-R vs R) (PSMB5/R24C C/T + CD68 POSITIVE FOLLICULAR 0-50, Total): 345 days
- Median PFS (Vc-R vs R) (PSMB9/R60H A/G + 20S % POSITIVE CYTOPLASMIC SIGNAL 95-100, Excluded): 347 days
- Median PFS (Vc-R vs R) (PSMB9/R60H A/G + 20S % POSITIVE CYTOPLASMIC SIGNAL 95-100, Selected): 273 days
- Median PFS (Vc-R vs R) (PSMB9/R60H A/G + 20S % POSITIVE CYTOPLASMIC SIGNAL 95-100, Total): 345 days
- Median PFS (Vc − R vs R) (PSMB9/R60H A/G + CD68 OVERALL POSITIVE 0-50, Excluded): 349 days
- Median PFS (Vc − R vs R) (PSMB9/R60H A/G + CD68 OVERALL POSITIVE 0-50, Selected): 273 days
- Median PFS (Vc − R vs R) (PSMB9/R60H A/G + CD68 OVERALL POSITIVE 0-50, Total): 345 days
- Median PFS (Vc-R vs R) (PSMB9/R60H A/G + CD68 POSITIVE FOLLICULAR 0-50, Excluded): 349 days
- Median PFS (Vc-R vs R) (PSMB9/R60H A/G + CD68 POSITIVE FOLLICULAR 0-50, Selected): 273 days
- Median PFS (Vc-R vs R) (PSMB9/R60H A/G + CD68 POSITIVE FOLLICULAR 0-50, Total): 345 days
- PFS median (PSMB9/R60H G/G & P65 % NUCLEAR STAINING: >0): 9.5 mo
- Median PFS (Vc − R vs R) (PSMB9/R60H G/G + 20S % NUCLEAR STAINING 30-90, Excluded): 345 days
- Median PFS (Vc-R vs R) (PSMB9/R60H G/G + 20S % NUCLEAR STAINING 30-90, Selected): 280 days
- Median PFS (Vc − R vs R) (PSMB9/R60H G/G + 20S % NUCLEAR STAINING 30-90, Total): 345 days
- PFS median (Prior RX: 1 & CD68 POSITIVE FOLLICULAR: 0-50): 9.3 mo
- PFS median (Prior Ritutux NO & CD68 POSITIVE FOLLICULAR: 0-50): 9.2 mo
- PFS median (Race Group OTHER & 20S % NUCLEAR STAINING: >20): 3.8 mo
- Median PFS (Vc-R vs R) (SEX MALE + 20S % NUCLEAR STAINING 30-90, Excluded): 357 days
- Median PFS (Vc-R vs R) (SEX MALE + 20S % NUCLEAR STAINING 30-90, Selected): 235 days
- Median PFS (Vc-R vs R) (SEX MALE + 20S % NUCLEAR STAINING 30-90, Total): 345 days
- Median PFS (Vc − R vs R) (SEX MALE + P65 % POSITIVE CYTOPLASMIC SIGNAL >90%, Excluded): 375 days
- Median PFS (Vc − R vs R) (SEX MALE + P65 % POSITIVE CYTOPLASMIC SIGNAL >90%, Selected): 271 days
- Median PFS (Vc − R vs R) (SEX MALE + P65 % POSITIVE CYTOPLASMIC SIGNAL >90%, Total): 345 days
- Median PFS (Vc-R vs R) (Selected: 20S % NUCLEAR STAINING 30-90 and P65 % POSITIVE CYTOPLASMIC SIGNAL >90%): 277 days
- Median PFS (Vc-R vs R) (Selected: AGEGRP <=65 and CD68 OVERALL POSITIVE 0-50): 279 days
- Median PFS (Vc-R vs R) (Selected: AGEGRP <=65 and P65 % POSITIVE CYTOPLASMIC SIGNAL >90%): 277 days
- Median PFS (Vc-R vs R) (Selected: CD68 OVERALL POSITIVE 0-50 and P65 % POSITIVE C[…] >90%): 279 days
- Median PFS (Vc-R vs R) (Selected: FLIPI High and P65 % POSITIVE CYTOPLASMIC SIGNAL >90%): 212 days
- Median PFS (Vc-R vs R) (Selected: PRITUX NO and P65 % NUCLEAR STAINING 0): 287 days
- Median PFS (Vc-R vs R) (Selected: PSMB1/P11A C/G and ANNARBOR >=III): 275 days
- Median PFS (Vc-R vs R) (Selected: PSMB1/P11A C/G and P65 % NUCLEAR STAINING 0): 279 days
- PFS median (Sex MALE & 20S % NUCLEAR STAINING: >20): 7.7 mo
- Median PFS (Vc-R vs R) (TLAST >1 year + CD68 POSITIVE FOLLICULAR 0-50, Excluded): 288 days
- Median PFS (Vc-R vs R) (TLAST >1 year + CD68 POSITIVE FOLLICULAR 0-50, Selected): 357 days
- Median PFS (Vc-R vs R) (TLAST >1 year + CD68 POSITIVE FOLLICULAR 0-50, Total): 346 days
- Median PFS (Vc − R vs R) (TLAST >1 year + P65 % POSITIVE CYTOPLASMIC SIGNAL >90%, Excluded): 280 days
- Median PFS (Vc − R vs R) (TLAST >1 year + P65 % POSITIVE CYTOPLASMIC SIGNAL >90%, Selected): 357 days
- Median PFS (Vc − R vs R) (TLAST >1 year + P65 % POSITIVE CYTOPLASMIC SIGNAL >90%, Total): 345 days
- PFS median (Total biomarker evaluable, N = 356): 11.3 months
- Median PFS (Vc-R vs R) (Total: 20S % NUCLEAR STAINING 30-90 and P65 % POSITIVE CYTOPLASMIC SIGNAL >90%): 345 days
- Median PFS (Vc-R vs R) (Total: AGEGRP <=65 and CD68 OVERALL POSITIVE 0-50): 345 days
- Median PFS (Vc-R vs R) (Total: AGEGRP <=65 and P65 % POSITIVE CYTOPLASMIC SIGNAL >90%): 345 days
- Median PFS (Vc-R vs R) (Total: CD68 OVERALL POSITIVE 0-50 and P65 % POSITIVE C[…] >90%): 345 days
- Median PFS (Vc-R vs R) (Total: FLIPI High and P65 % POSITIVE CYTOPLASMIC SIGNAL >90%): 345 days
- Median PFS (Vc-R vs R) (Total: PRITUX NO and P65 % NUCLEAR STAINING 0): 345 days
- Median PFS (Vc-R vs R) (Total: PSMB1/P11A C/G and ANNARBOR >=III): 345 days
- Median PFS (Vc-R vs R) (Total: PSMB1/P11A C/G and P65 % NUCLEAR STAINING 0): 338 days
- PFS (confirmation cohort 1 (excludes China; n=106), biomarker positive): 9.5 months
- median PFS (confirmation cohort 2 (includes China subjects and subjects with missing data), biomarker positive): 9.5 months
- PFS (discovery cohort, CD68 Low and PSMB P11A): 8.5 months
- median PFS (subjects with PSMB1 P11A (C/G)): 9.5 months
- median PFS (subjects with higher CD68 expression): 16.2 months
- median PFS (subjects with low CD68 (0-50)): 9.3 months
